# How the values were obtained:
# Type in all cases: cell-based
# [1] = test system: Staphylococcus aureus; assay: VITEK2 Compact AST (AST-P639 card), gold standard culture-based AST; conditions: for Resistance profiles by VITEK2: R: number of resistant among 22 blinds; for Resistance profiles by VITEK2: S: number of susceptible among 22 blinds
# Experimental: Step 1. Sample collection and drug susceptibility verification: 160 clinical Staphylococcus aureus isolates were collected from 20 hospitals across china in a period between June 2018 and June 2019. All isolates were tested for drug susceptibility using bioMérieux Vitek2 Compact System and AST-P639 card, and specifically, and the results were used as the gold standard (culture-based AST).
# [2] = test system: Klebsiella pneumoniae; assay: VITEK2 Compact AST (AST-GN13/GN334 cards), gold standard culture-based AST; conditions: for Resistance profiles by VITEK2: R: number of resistant among 24 blinds; for Resistance profiles by VITEK2: S: number of susceptible among 24 blinds
# Text: Step 1. Sample collection and drug susceptibility verification: 240 clinical Klebsiella pneumoniae isolates were collected from 23 hospitals across china in a period between January 2018 and March 2019.
# [3] = test system: Enterococcus faecalis; assay: VITEK2 Compact AST (AST-P639 cards), gold standard culture-based AST
# [4] = test system: Streptococcus pneumoniae; assay: VITEK2 Compact AST (AST-GP68 cards) with penicillin disc diffusion, gold standard culture-based AST
# Experimental: (§1) Step 1. Drug susceptibility verification: The Streptococcus pneumoniae isolates were tested for drug susceptibility using bioMérieux Vitek2 Compact System and AST-GP68 cards, and specifically, the susceptibility of penicillin was double checked by disc diffusion method (OXOID, CT0043B), and the combined results were used as the gold standard (culture-based AST).
# as §1, with “Sample collection and drug” for “Drug”, “48 clinical” for “The”, “pneumoniae isolates were collected from 18 hospitals across china in a period between May 2017 and October 2019. All” for “pneumoniae”, “card,” for “cards,”
# [5] = Resistance profile classification A
# [6] = Resistance profile classification B
# [7] = Resistance profile classification C
# [8] = Resistance profile classification D
# [9] = Resistance profile classification G
# [10] = Resistance profile classification H
# [11] = Resistance profile classification I
# [12] = Resistance profile classification J
# [13] = Resistance profile classification S
substance,measurement,setting,value
Teicoplanin,Resistance profiles by VITEK2: R,[1],0
same,Resistance profiles by VITEK2: S,[1],22
Gentamicin,Resistance profiles by VITEK2: R,[1],7
same,Resistance profiles by VITEK2: S,[1],15
same,Resistance profiles by VITEK2: R,[2],12
same,Resistance profiles by VITEK2: S,[2],12
penicillin,Susceptibility of Emterococcus faecalis to 11 antibacterial drugs,[3]; [5],R
same,Susceptibility of Emterococcus faecalis to 11 antibacterial drugs,[3]; [6],R
same,Susceptibility of Emterococcus faecalis to 11 antibacterial drugs,[3]; [7],R
same,Susceptibility of Emterococcus faecalis to 11 antibacterial drugs,[3]; [8],R
same,Susceptibility of Emterococcus faecalis to 11 antibacterial drugs,"[3]; Resistance profile classification F (first line so labelled, r12)",R
same,Susceptibility of Emterococcus faecalis to 11 antibacterial drugs,"[3]; Resistance profile classification F (second line so labelled, r13)",R
same,Susceptibility of Emterococcus faecalis to 11 antibacterial drugs,[3]; [9],S
same,Susceptibility of Emterococcus faecalis to 11 antibacterial drugs,[3]; [10],S
same,Susceptibility of Emterococcus faecalis to 11 antibacterial drugs,[3]; [11],S
same,Susceptibility of Emterococcus faecalis to 11 antibacterial drugs,[3]; [12],S
same,Susceptibility of Emterococcus faecalis to 11 antibacterial drugs,[3]; Resistance profile classification K,S
same,Susceptibility of Emterococcus faecalis to 11 antibacterial drugs,[3]; Resistance profile classification L,S
same,Susceptibility of Emterococcus faecalis to 11 antibacterial drugs,[3]; Resistance profile classification M,S
same,Susceptibility of Emterococcus faecalis to 11 antibacterial drugs,[3]; [13],S
same,Resistance profiles by VITEK2: R,[1],20
same,Resistance profiles by VITEK2: S,[1],2
same,Blind 1 by AST,[4]; Blind 1,S
same,Susceptibility of Streptococcus pneumoniae to 14 antibacterial drugs,[4]; [5],R
same,Susceptibility of Streptococcus pneumoniae to 14 antibacterial drugs,[4]; [6],R
same,Susceptibility of Streptococcus pneumoniae to 14 antibacterial drugs,[4]; [7],R
same,Susceptibility of Streptococcus pneumoniae to 14 antibacterial drugs,[4]; [8],R
same,Susceptibility of Streptococcus pneumoniae to 14 antibacterial drugs,[4]; Resistance profile classification E,R
same,Susceptibility of Streptococcus pneumoniae to 14 antibacterial drugs,[4]; Resistance profile classification F,R
same,Susceptibility of Streptococcus pneumoniae to 14 antibacterial drugs,[4]; [9],S
same,Susceptibility of Streptococcus pneumoniae to 14 antibacterial drugs,[4]; [10],S
same,Susceptibility of Streptococcus pneumoniae to 14 antibacterial drugs,[4]; [11],S
same,Susceptibility of Streptococcus pneumoniae to 14 antibacterial drugs,[4]; [12],S
same,Susceptibility of Streptococcus pneumoniae to 14 antibacterial drugs,[4]; [13],S
same,blind 2 by AST,[4]; blind 2,R
Amoxicillin-clavulanate,Resistance profiles by VITEK2: R,[2],16
same,Resistance profiles by VITEK2: S,[2],8

# Reference: US20220380829A1, “Method of Diagonosizing Pathogens and their Antimicrobial Susceptibility” (HANGZHOU DIAN MEDICAL LABORATORY CO., LTD., priority 2019, published 2022)
